One data set has as its system Staphylococcus aureus. In words: Antimicrobial activity against Staphylococcus aureus ATCC 6538p assessed as inhibition of bacterial growth measured for 24 hrs by standard broth microdilution method. It is filed as functional.
Data set [1] relates to Staphylococcus epidermidis. As to the kind of experiment: Antimicrobial activity against Staphylococcus epidermidis ATCC 12228 assessed as inhibition of bacterial growth measured for 24 hrs by standard broth microdilution method. It is filed as functional.
Another data set relates to Escherichia coli. In words: Antimicrobial activity against Escherichia coli ATCC 25922 assessed as inhibition of bacterial growth measured for 24 hrs by standard broth microdilution method. The data set is classed as functional.
A further data set deals with Shigella dysenteriae. As to the kind of experiment: Antimicrobial activity against Shigella dysenteriae ATCC 9752 assessed as inhibition of bacterial growth measured for 24 hrs by standard broth microdilution method. It is filed as functional.
Another data set relates to Salmonella typhimurium. In words: Antimicrobial activity against Salmonella enterica subsp. enterica serovar Typhimurium ATCC 14028 assessed as inhibition of bacterial growth measured for 24 hrs by standard broth microdilution method. The data set is classed as functional.
The test system of another data set is Klebsiella pneumoniae. As to the kind of experiment: Antimicrobial activity against Klebsiella pneumoniae ATCC 10031 assessed as inhibition of bacterial growth measured for 24 hrs by standard broth microdilution method. It is filed as functional.
In the next data set the test system is Pseudomonas aeruginosa. As to the kind of experiment: Antimicrobial activity against Pseudomonas aeruginosa ATCC 27853 assessed as inhibition of bacterial growth measured for 24 hrs by standard broth microdilution method. It is filed as functional.
A short description of data set [2]: Hemolytic activity in human Red blood cells assessed as hemolysis rate at 24 uM incubated for 30 mins by absorbance based analysis relative to control. The data set is classed as toxicity, cell-based, Erythrocyte. The note with it: read-out: Activity.
Data set [3] concerns the target T1, Trypsin (Homo sapiens, UniProt P07477+P07478+P35030). As to the kind of experiment: Proteolytic stability of compound assessed as trypsin (unknown origin) mediated drug degradation measured at 10 to 60 mins by HPLC analysis. It is filed as ADME, protein assay. The note with it: time 10-60 min, read-out: Drug degradation.
Data set [4] addresses T1, Trypsin. As to the kind of experiment: Proteolytic stability of compound assessed as trypsin (unknown origin) mediated drug degradation by measuring half life measured at 10 to 60 mins by HPLC analysis. It is filed as ADME, protein assay. The note with it: time 10-60 min.
The target in data set [5] is T1, Trypsin. As to the kind of experiment: Proteolytic stability of compound assessed as trypsin (unknown origin) mediated drug hydrolysis measured at 10 to 60 mins by HPLC analysis. It is filed as ADME, protein assay. The note with it: time 10-60 min, read-out: Drug degradation.
For data set [6], the target named is T1, Trypsin. In words: Proteolytic stability of compound assessed as trypsin (unknown origin) mediated drug degradation by measuring parent compound remaining measured at 10 to 60 mins by HPLC analysis. It is filed as ADME, protein assay. The note with it: time 10-60 min.

These results are taken from ChEMBL document CHEMBL5550144, “Lysine-homologue substitution: Impact on antimicrobial activity and proteolytic stability of cationic stapled heptapeptides” (Bioorg Med Chem, 2024).

≈ marks a conversion by molar mass, not a printed value. Positions of bridges follow the written chain, without caps; N, C: chain ends. Non-standard residues stand in square brackets, D forms with d. Residues, ends and D or L forms follow the SMILES beside them. S5 = C=CCCC[C@](C)(N)C(=O)O; Nle = CCCC[C@H](N)C(=O)O; Orn = NCCC[C@H](N)C(=O)O; Dab = NCC[C@H](N)C(=O)O; Dap = NC[C@H](N)C(=O)O

In the case of `C[C@@]1(C(=O)N[C@@H](CCCCN)C(N)=O)CCC/C=C/CCC[C@](C)(NC(=O)[C@@H](N)CCCCN)C(=O)N[C@@H](Cc2c[nH]c3ccccc23)C(=O)N[C@@H](CCCCN)C(=O)N[C@@H](CCC(=O)O)C(=O)N1` (H-K[S5]WKE[S5]K-NH2; staple (E) 2-6), the MIC (in the data set with Staphylococcus aureus; in [1]; with Escherichia coli; with Shigella dysenteriae; with Salmonella typhimurium; in the data set on Klebsiella pneumoniae) was above 100 µg/mL in each case. For the same compound, in the data set with Pseudomonas aeruginosa, the minimal inhibitory concentration (MIC) is above 100 µg/mL. Also, in data set [2], the hemolysis at 0.5 h, 24 µM was below 0.1%.

Take `CCCC[C@@H]1NC(=O)[C@H](CCCCN)NC(=O)[C@H](Cc2c[nH]c3ccccc23)NC(=O)[C@@](C)(NC(=O)[C@@H](N)CCCCN)CCC/C=C/CCC[C@@](C)(C(=O)N[C@@H](CCCCN)C(N)=O)NC1=O` (H-K[S5]WK[Nle][S5]K-NH2; staple (E) 2-6): the MIC with Staphylococcus aureus is 12.5 µg/mL (≈ 13.1 µM); in data set [1] it was 6.3 µg/mL (≈ 6.62 µM); in the data set with Escherichia coli, 25 µg/mL (≈ 26.3 µM); in the data set with Shigella dysenteriae, 12.5 µg/mL (≈ 13.1 µM); with Salmonella typhimurium, 50 µg/mL (≈ 52.6 µM); with Klebsiella pneumoniae, 50 µg/mL (≈ 52.6 µM). In the data set on Pseudomonas aeruginosa, the MIC stood at 25 µg/mL (≈ 26.3 µM). Moreover, the hemolysis at 0.5 h, 24 µM in [2] was found to be 0.5%. Also, on Trypsin [3], the metabolised is above 40%. The half-life on Trypsin [4] amounted to 1.33 h.

In the case of `CCCC[C@@H]1NC(=O)[C@H](CCN)NC(=O)[C@H](Cc2c[nH]c3ccccc23)NC(=O)[C@@](C)(NC(=O)[C@@H](N)CCN)CCC/C=C/CCC[C@@](C)(C(=O)N[C@@H](CCN)C(N)=O)NC1=O` (H-[Dab][S5]W[Dab][Nle][S5][Dab]-NH2; staple (E) 2-6), the MIC with Staphylococcus aureus turned out to be 25 µg/mL (≈ 28.8 µM); in data set [1], 12.5 µg/mL (≈ 14.4 µM); with Escherichia coli, 25 µg/mL (≈ 28.8 µM); with Shigella dysenteriae it was 25 µg/mL (≈ 28.8 µM); in the data set on Salmonella typhimurium, 50 µg/mL (≈ 57.7 µM); in the data set with Klebsiella pneumoniae, 50 µg/mL (≈ 57.7 µM). The MIC with Pseudomonas aeruginosa stood at 50 µg/mL (≈ 57.7 µM). In addition, the hemolysis at 0.5 h, 24 µM in data set [2] stood at 0.1%. The metabolised at Trypsin [5] is 11%. Further, at Trypsin [4], the half-life amounted to 4.82 h.

Take `CCCC[C@@H]1NC(=O)[C@H](CN)NC(=O)[C@H](Cc2c[nH]c3ccccc23)NC(=O)[C@@](C)(NC(=O)[C@@H](N)CN)CCC/C=C/CCC[C@@](C)(C(=O)N[C@@H](CN)C(N)=O)NC1=O` (H-[Dap][S5]W[Dap][Nle][S5][Dap]-NH2; staple (E) 2-6): the minimal inhibitory concentration (MIC) in the data set with Staphylococcus aureus was determined as 12.5 µg/mL (≈ 15.2 µM); in data set [1], 25 µg/mL (≈ 30.3 µM); in the data set on Escherichia coli, 25 µg/mL (≈ 30.3 µM); with Shigella dysenteriae, 25 µg/mL (≈ 30.3 µM); with Salmonella typhimurium, 50 µg/mL (≈ 60.6 µM); in the data set with Klebsiella pneumoniae, 50 µg/mL (≈ 60.6 µM). The minimal inhibitory concentration (MIC) with Pseudomonas aeruginosa worked out at 50 µg/mL (≈ 60.6 µM). Also, the hemolysis at 0.5 h, 24 µM in data set [2] was found to be 0.2%. For the same compound, the Stability at Trypsin [6] is reported as above 90%. For the same compound, the half-life at Trypsin [4] came out at 6.38 h.

With `CCCC[C@@H]1NC(=O)[C@H](CCCN)NC(=O)[C@H](Cc2c[nH]c3ccccc23)NC(=O)[C@@](C)(NC(=O)[C@@H](N)CCCN)CCC/C=C/CCC[C@@](C)(C(=O)N[C@@H](CCCN)C(N)=O)NC1=O` (H-[Orn][S5]W[Orn][Nle][S5][Orn]-NH2; staple (E) 2-6), the MIC with Staphylococcus aureus is 12.5 µg/mL (≈ 13.7 µM); in [1], 6.3 µg/mL (≈ 6.93 µM); in the data set on Escherichia coli, 25 µg/mL (≈ 27.5 µM); with Shigella dysenteriae, 12.5 µg/mL (≈ 13.7 µM); in the data set with Salmonella typhimurium it was 25 µg/mL (≈ 27.5 µM); in the data set on Klebsiella pneumoniae it was 37.5 µg/mL (≈ 41.2 µM). The MIC in the data set with Pseudomonas aeruginosa turned out to be 18.8 µg/mL (≈ 20.7 µM). Further, in data set [2], the hemolysis at 0.5 h, 24 µM is 0.4%. The metabolised at Trypsin [5] came out at 11%. Besides, the half-life at Trypsin [4] came out at 4.3 h.
